Experimental findings from ChEMBL document CHEMBL2010784 (ACS Med Chem Lett, 2011) are described below.

Activity calls are given as the source filed them. No cut-off for these calls is given here.

Data set [1] concerns Human immunodeficiency virus 1. Nature of the data set: Antiviral activity against HIV-1 infected in human MT-4 cells assessed as inhibition of viral-induced cytopathogenicity after 4 days by MTT assay. The format is functional, organism-based. As to conditions: Human immunodeficiency virus 1, MT4, 96 h.
Another data set has as its system MT4. Nature of the data set: (§1) Cytotoxicity against human MT4 cells after 4 days by MTT assay. The format is cell-based. As to conditions: mt4, 96 h.
A short description of data set [2]: Selectivity index, ratio of CC50 for human MT-4 cells to EC50 for HIV-1. The following applies: read-out: Ratio CC50/EC50. Format: toxicity, cell-based, MT4.
Data set [3] relates to Human alphaherpesvirus 1. Nature of the data set: Antiviral activity against HSV-1 KOS infected in HEL cells assessed as inhibition of viral-induced cytopathogenicity. The following applies: Human alphaherpesvirus 1, KOS. The format is functional, organism-based.
The next data set relates to Human alphaherpesvirus 2. Put plainly: Antiviral activity against HSV-2 G infected in HEL cells assessed as inhibition of viral-induced cytopathogenicity. The format is functional, organism-based. The following applies: Human alphaherpesvirus 2, strain G.
The test system of data set [4] is Human alphaherpesvirus 1. Put plainly: Antiviral activity against ACV-resistant TK-deficient HSV-1 KOS infected in HEL cells assessed as inhibition of viral-induced cytopathogenicity. The format is functional, organism-based. As to conditions: Human alphaherpesvirus 1, KOS.
The nature of data set [5]: Cytotoxicity against human HEL cells assessed as changes in cell morphology by microscopy. Format: cell-based.
A short description of data set [6]: Selectivity index, ratio of MCC for human HEL cells to EC50 for HSV-1 KOS.
Data set [7] is described as follows: Selectivity index, ratio of MCC for human HEL cells to EC50 for HSV-2 G.
For another data set, the system named is Human respirovirus 3. Nature of the data set: Antiviral activity against Parainfluenza-3 virus infected in african green monkey Vero cells assessed as inhibition of viral-induced cytopathogenicity. The format is functional, organism-based.
Data set [8] deals with Mammalian orthoreovirus 1. Nature of the data set: Antiviral activity against Reovirus-1 infected in african green monkey Vero cells assessed as inhibition of viral-induced cytopathogenicity. The format is functional, organism-based.
Another data set has as its system Sindbis virus. Nature of the data set: Antiviral activity against Sindbis virus infected in african green monkey Vero cells assessed as inhibition of viral-induced cytopathogenicity. The format is functional, organism-based.
In a further data set the test system is Coxsackievirus B4. Put plainly: Antiviral activity against Coxsackie B4 virus infected in african green monkey Vero cells assessed as inhibition of viral-induced cytopathogenicity. The format is functional, organism-based.
In the next data set the test system is Punta Toro virus. Nature of the data set: Antiviral activity against Punta Toro virus infected in african green monkey Vero cells assessed as inhibition of viral-induced cytopathogenicity. Format: functional, organism-based.
Data set [9] relates to Vesicular stomatitis virus. Nature of the data set: Antiviral activity against VSV infected in human HeLa cells assessed as inhibition of viral-induced cytopathogenicity. Format: functional, organism-based.
For data set [10], the system named is Respiratory syncytial virus. Nature of the data set: Antiviral activity against RSV infected in human HeLa cells assessed as inhibition of viral-induced cytopathogenicity. The format is functional, organism-based.
Another data set concerns Feline coronavirus. Put plainly: Antiviral activity against Feline coronavirus infected in CrFK cells assessed as inhibition of viral-induced cytopathogenicity. Format: functional, organism-based.
In the next data set the test system is Felid alphaherpesvirus 1. Nature of the data set: Antiviral activity against Feline herpes virus infected in CrFK cells assessed as inhibition of viral-induced cytopathogenicity. The format is functional, organism-based.
The subject of data set [11] is Influenza A virus. Nature of the data set: Antiviral activity against Influenza A virus H1N1 infected in MDCK cells assessed as inhibition of viral-induced cytopathogenicity. Format: functional, organism-based.
For data set [12], the system named is Influenza A virus. Nature of the data set: Antiviral activity against Influenza A virus H3N2 infected in MDCK cells assessed as inhibition of viral-induced cytopathogenicity. The format is functional, organism-based.
Another data set has as its system Influenza B virus. Put plainly: Antiviral activity against influenza B virus infected in MDCK cells assessed as inhibition of viral-induced cytopathogenicity. Format: functional, organism-based.
Data set [13] can be described thus: as §1. The format is cell-based. The following applies: MT4 cells.

For the compound `C#C[C@]1(CO)S[C@@H](n2cnc3c(=O)[nH]c(N)nc32)C[C@@H]1O`, the half-maximal effective concentration (EC50) in data set [1] was found to be 5.5 nM; in the data set with Human alphaherpesvirus 1 [3], 3000 nM; in the data set with Human alphaherpesvirus 2, 1500 nM; in the data set with Human alphaherpesvirus 1 [4] it was 4.5 µM. The compound also gave a CC50 with MT4 of more than 100 µM. For the same compound, in data set [2], the selectivity ratio was more than 18200. Also, the MCC in data set [5] is more than 100 µM. The “Selectivity Index” value in data set [6] and in [7] was more than 50 throughout. Also, the outcome (with Human respirovirus 3; in data set [8]; in the data set on Sindbis virus; in the data set on Coxsackievirus B4; with Punta Toro virus; in [9]) was inactive. Moreover, the result (in data set [10]; with Feline coronavirus; with Felid alphaherpesvirus 1; with Influenza A virus [11]; in the data set with Influenza A virus [12]; in the data set with Influenza B virus) was inactive.

On to `C#C[C@]1(CO)O[C@@H](n2cnc3c(=O)[nH]c(N)nc32)C[C@@H]1O`, for which the EC50 in data set [1] worked out at 1.5 nM. For the same compound, the cytotoxic concentration (CC50) at 96 h in data set [13] stood at 1.4 µM. In data set [2], the selectivity ratio was 933. Also, the result (with Human respirovirus 3; in data set [8]; in the data set on Sindbis virus; in the data set on Coxsackievirus B4; with Punta Toro virus; in data set [9]) was inactive. Besides, the outcome (in [10]; in the data set on Feline coronavirus; with Felid alphaherpesvirus 1; in the data set with Influenza A virus [11]; in the data set on Influenza A virus [12]; in the data set on Influenza B virus) was inactive.

Consider `Nc1nc2c(ncn2COC(CO)CO)c(=O)[nH]1` [GANCICLOVIR], for which the MCC in data set [5] is more than 100 µM.

Regarding `C#C[C@]1(CO)S[C@@H](n2ccc(N)nc2=O)C[C@@H]1O`, the EC50 was 11 nM in [1], 2000 nM in the data set on Human alphaherpesvirus 1 [3], 1500 nM with Human alphaherpesvirus 2 and 2.5 µM in the data set on Human alphaherpesvirus 1 [4]. Moreover, the half-maximal cytotoxic concentration (CC50) in the data set with MT4 came to 6 µM. In data set [2], the selectivity ratio came out at 545. The MCC in [5] is more than 100 µM. Further, the “Selectivity Index” value in data set [6] and in data set [7] was more than 50 throughout. The result (in the data set on Human respirovirus 3; in data set [8]; in the data set with Sindbis virus; with Coxsackievirus B4; with Punta Toro virus; in [9]) was inactive. Moreover, the result (in [10]; in the data set on Feline coronavirus; in the data set on Felid alphaherpesvirus 1; in the data set on Influenza A virus [11]; with Influenza A virus [12]; with Influenza B virus) was inactive.

Regarding `C#C[C@]1(CO)S[C@@H](n2cnc3c(N)ncnc32)C[C@@H]1O`, the 50% effective concentration (EC50) was found to be 87 nM in data set [1], 7000 nM in the data set with Human alphaherpesvirus 1 [3], 4000 nM with Human alphaherpesvirus 2 and 8 µM in the data set with Human alphaherpesvirus 1 [4]. The compound also showed a CC50 in the data set with MT4 of more than 20 µM. In addition, the selectivity ratio in data set [2] is more than 230. Besides, in data set [5], the MCC was more than 100 µM. In addition, the outcome (in the data set on Human respirovirus 3; in data set [8]; in the data set on Sindbis virus; with Coxsackievirus B4; with Punta Toro virus; in data set [9]) was inactive. Besides, the outcome (in [10]; in the data set on Feline coronavirus; in the data set with Felid alphaherpesvirus 1; in the data set on Influenza A virus [11]; with Influenza A virus [12]; with Influenza B virus) was inactive.

As to `C#C[C@]1(CO)O[C@@H](n2ccc(N)nc2=O)C[C@@H]1O`, the 50% effective concentration (EC50) in data set [1] was found to be 4.8 nM. The result (in the data set with Human respirovirus 3; in data set [8]; with Sindbis virus; in the data set on Coxsackievirus B4; with Punta Toro virus; in data set [9]) was inactive. Further, the result (in data set [10]; in the data set on Feline coronavirus; in the data set with Felid alphaherpesvirus 1) was inactive.

Regarding `C#C[C@]1(CO)O[C@@H](n2cnc3c(N)ncnc32)C[C@@H]1O`, the EC50 in data set [1] is 9.8 nM. Also, the 50% cytotoxic concentration (CC50) at 96 h in data set [13] turned out to be 16 µM. In addition, the selectivity ratio in data set [2] is 1630. For the same compound, the result (in the data set with Human respirovirus 3; in [8]; in the data set on Sindbis virus; with Coxsackievirus B4; with Punta Toro virus; in data set [9]) was inactive. Besides, the outcome (in [10]; in the data set with Feline coronavirus; in the data set on Felid alphaherpesvirus 1; with Influenza A virus [11]; with Influenza A virus [12]; in the data set with Influenza B virus) was inactive.
